Earlier results in patent publication US20150267258A1, “BIOMARKERS FOR DETERMINING EFFECTIVE RESPONSE OF TREATMENTS OF HEPATOCELLULAR CARCINOMA (HCC) PATIENTS” (BAYER PHARMA AKTIENGESELLSCHAFT, priority 2012, published 2015).

What was measured:
[1] = system: metastatic colorectal cancer; conditions: patients with metastatic colorectal cancer

Row | SMILES | Overall survival [1] | Effectiveness in lung cancer (lung cancer)
1 | CNC(=O)c1cc(Oc2ccc(NC(=O)Nc3ccc(Cl)c(C(F)(F)F)c3)c(F)c2)ccn1 [Regorafenib, 4-[4-({[4-Chloro-3-(trifluoromethyl)phenyl]carbamoyl}amino)-3-fluorophenoxy]-N-methylpyridine-2-carboxamide] | increase the overall survival | 
2 | CNC(=O)c1cc(Oc2ccc(NC(=O)Nc3ccc(Cl)c(C(F)(F)F)c3)cc2)ccn1 [Sorafenib, 4-[4-[[4-chloro-3-(trifluoromethyl)phenyl]carbamoylamino]phenoxy]-N-methyl-pyridine-2-carboxamide] |  | effective in lung cancer
